Measurements as given in US20040175789A1, “G protein coupled receptors and dna sequences thereof” (priority 2003, published 2004).

Key:
[1] = system: CHO-K1 (CHO-CRE) cells; test: Selectivity check: Ca2+ signal (Flipr) in CHO-CRE CHO-K1 cells without receptor; format: cell-based; settings: not primed
Protocol: (§1) Twenty-four hours before the experiment, the cells are havested, counted and seeded in 384-well plates at 10000 cells per wells and put at 37° C./5% CO2. The day of the experiment, the injection plates containing the compounds are prepared as described in the following table:
(§2) The cells are loaded with 2 μM Fluo-4 in HBSS/Hepes buffer. After one hour incubation at 37° C./5% CO2, the cells are washed with HBSS/Hepes containing 2.5 mM probenecid (2 wash cycles+volume adjustment are performed). Plates that will be primed with ATP are adjusted to 20 μl final volume and plates that will directly receive the compounds are adjusted to 40 μl final volume. Four assay plates are primed with 20 μl ATP at 20 μM initial (10 μM final concentration) and are incubated at room temperature for 30 minutes. Compounds plates at 3 times the final concentration are then injected with the Flipr pipettor on both primed and not primed plates. The Flipr laser is setup on 0.6 watt, the exposure length at 0.4 sec. […] A 10 seconds baseline is recorded prior compounds injection. After the injection, the signal is recorded every second for one minute. Then, signal decay is measured for 20 additional seconds. Two statistics are exported: Fbasal and Fmax. For each well, a dF/F value is expressed with the following formula: (Fmax−Fbasal)/Fbasal is the basal fluorescence prior compound injection and Fmax is the peak value of the kinetic.
(§3) These compounds are also tested against wild type cells and other transfected cells in order to check the selectivity.

[2] = system: Contig 88:1; test: Selectivity check: Ca2+ signal (Flipr) in CHO-CRE cells transfected with Contig 88:1; format: cell-based, human; settings: not primed
Protocol: as §1, §2, §3

[3] = target: T1, orphan receptor Singlet_413 (Homo sapiens, UniProt Q8TDS5); test: Ligand fishing: transient Ca2+ signal (Flipr384, Fluo-4) in CHO-K1-CRE cells stably transfected with Singlet_413; format: cell-based; settings: not primed
T1 construct: expressed in transfected cells
Protocol: as §1, §2

[4] = system: CHO-K1-ATCC cells; test: Selectivity check: Ca2+ signal (Flipr) in wild type CHO-K1-ATCC cells; format: cell-based; settings: for dF/F (Fmax−Fbasal)/Fbasal, CHO-K1-ATCC, np: not primed
Protocol: as §1, §2, §3

T1 sequence (Q8TDS5 whole entry): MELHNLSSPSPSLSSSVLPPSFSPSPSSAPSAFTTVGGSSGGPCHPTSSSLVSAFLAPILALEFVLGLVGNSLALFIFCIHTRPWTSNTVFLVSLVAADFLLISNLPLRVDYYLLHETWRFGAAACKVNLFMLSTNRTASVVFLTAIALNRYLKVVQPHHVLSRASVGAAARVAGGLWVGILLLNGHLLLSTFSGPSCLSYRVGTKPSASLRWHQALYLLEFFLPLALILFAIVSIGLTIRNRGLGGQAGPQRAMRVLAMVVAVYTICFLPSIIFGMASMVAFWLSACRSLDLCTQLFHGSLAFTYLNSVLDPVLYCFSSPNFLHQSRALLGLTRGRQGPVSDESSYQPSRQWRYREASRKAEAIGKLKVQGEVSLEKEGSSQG

SMILES | dF/F (Fmax−Fbasal)/Fbasal, CHO-CRE Singlet_413, np [3] | dF/F (Fmax−Fbasal)/Fbasal, CHO-CRE CHO-K1, np [1] | dF/F (Fmax−Fbasal)/Fbasal, CHO-CRE Contig 88:1, np [2] | dF/F (Fmax−Fbasal)/Fbasal, CHO-K1-ATCC, np [4] | activity (Ca2+ signal) on the non-transfected cells ([4]; non-transfected cells)
OCCN(CCO)c1nc(N2CCCCC2)c2nc(N(CCO)CCO)nc(N3CCCCC3)c2n1 [Cpd 15, Dipyridamole] | 0.11 | −0.04 | 0.39 | 0.38 | 
CCCCC/C=C\CC1OC1C/C=C\C/C=C\CCCC(=O)O (stereo not shown) [Cpd 9, 11,12-EPOXYEICOSATRIENOIC ACID] | 0.02 | −0.02 | 0.02 | 0.00 | 
CCCCC/C=C\C/C=C\C/C=C\C/C=C\CCCC(=O)OC(CO)CO [Cpd 14, 2-ARACHIDONOYLGLYCEROL] | 0.02 | −0.05 | 0.00 | 0.00 | 
CCCCC/C=C\C[C@@H]1O[C@H]1C(O)/C=C\C/C=C\CCCC(=O)O (stereo partly shown) [Cpd 7, HEPOXILIN B3] | 0.02 | −0.01 | 0.00 | 0.01 | 
CCCCCCCC/C=C\C/C=C\C=C\C(O)CCCC(=O)O (racemic) [Cpd 4, (±)5-HETrE] | 0.03 | −0.01 | 0.01 | 0.01 | 
CCCCC/C=C\C/C=C\C/C=C\C/C=C\CCCC(=O)O [Cpd 13, ARACHIDONIC ACID (20:4 n-6)] | 0.03 | −0.05 | 0.02 | 0.01 | 
CCCCC/C=C\C/C=C\C/C=C\C=C\[C@H](CCCC(=O)O)OO [Cpd 6, 5(S)-HPETE] | 0.01 | −0.01 | 0.00 | 0.03 | 

The next lines start with results.

dF/F (Fmax−Fbasal)/Fbasal, CHO-CRE Singlet_413, np [3] | SMILES | dF/F (Fmax−Fbasal)/Fbasal, CHO-CRE CHO-K1, np [1] | dF/F (Fmax−Fbasal)/Fbasal, CHO-CRE Contig 88:1, np [2] | dF/F (Fmax−Fbasal)/Fbasal, CHO-K1-ATCC, np [4] | activity (Ca2+ signal) on the non-transfected cells ([4]; non-transfected cells)
0.05 | CC/C=C\C/C=C\C/C=C\C/C=C\C/C=C\CCCC(=O)O [Cpd 12, EICOSAPENTAENOIC ACID (20:5 n-3)] | −0.04 | 0.03 | 0.02 | 
0.03 | CC/C=C\C/C=C\C/C=C\C/C=C\C=C\C(O)CCCC(=O)O (racemic) [Cpd 5, (±)5-HEPE] | −0.04 | 0.01 | 0.03 | 
0.01 | CCCCC/C=C\C/C=C\C/C=C\C=C\C(=O)CCCC(=O)O [Cpd 10, 5-KETOEICOSATETRAENOIC ACID] | −0.05 | 0.00 | 0.04 | not active
0.00 | CCCCC/C=C\C=C\[C@@H](O)C/C=C\C/C=C\CCCC(=O)O [Cpd 3, 11(S)-HETE] | −0.03 | 0.00 | −0.04 | 
0.01 | CCCCC/C=C\C/C=C\C/C=C\C=C\[C@@H](O)CCCC(=O)O [Cpd 1, 5(S)-HETE] | −0.02 | 0.00 | 0.02 | 
0.01 | CCCCC/C=C\C/C=C\C/C=C\C=C\[C@@H](O)CCCC(=O)O (racemic) [Cpd 2, (±)5-HETE] | −0.05 | 0.01 | 0.02 | 
−0.01 | CCCCC/C=C\C/C=C\C/C=C\C/C=C\CCCC(=O)OC(CO)COC(=O)CCCCCCCCCCCCCCCCC (stereo not shown) [Cpd 11, 1-STEAROYL-2-ARACHIDONOYL-GLYCEROL] | −0.05 | −0.01 | 0.01 | 
0.01 | CCCCC/C=C\C[C@@H](O)/C=C/C=C/C=C/[C@@H](O)CCCC(=O)O (relative stereo) [Cpd 8, 5(S), 12(R)-DIHETE all trans] | −0.04 | 0.01 | 0.02 | 
